Assay in all cases: biochemical
Common to all, as to assay type: biochemical

Assay [1] addresses 363 human kinases (including Aurora A/B/C) (Homo sapiens, UniProt P10721). The following applies: c-Kit, [ATP] 100 µM; for remaining activity at 0.1 µM: 100 nM; for remaining activity at 0.1 µM / remaining activity at 0.5 µM: read-out: % Enzyme Activity (relative to DMSO controls).
Excerpt: (§1) However, the Aurora A/B selectivity ratios derived from our in vitro and in vivo data can be compared to prioritize inhibitors.
The target of assay [2] is T1, 363 human kinases (including Aurora A/B/C) (Homo sapiens, UniProt P29323).
T1 sequence (P29323 19-1055): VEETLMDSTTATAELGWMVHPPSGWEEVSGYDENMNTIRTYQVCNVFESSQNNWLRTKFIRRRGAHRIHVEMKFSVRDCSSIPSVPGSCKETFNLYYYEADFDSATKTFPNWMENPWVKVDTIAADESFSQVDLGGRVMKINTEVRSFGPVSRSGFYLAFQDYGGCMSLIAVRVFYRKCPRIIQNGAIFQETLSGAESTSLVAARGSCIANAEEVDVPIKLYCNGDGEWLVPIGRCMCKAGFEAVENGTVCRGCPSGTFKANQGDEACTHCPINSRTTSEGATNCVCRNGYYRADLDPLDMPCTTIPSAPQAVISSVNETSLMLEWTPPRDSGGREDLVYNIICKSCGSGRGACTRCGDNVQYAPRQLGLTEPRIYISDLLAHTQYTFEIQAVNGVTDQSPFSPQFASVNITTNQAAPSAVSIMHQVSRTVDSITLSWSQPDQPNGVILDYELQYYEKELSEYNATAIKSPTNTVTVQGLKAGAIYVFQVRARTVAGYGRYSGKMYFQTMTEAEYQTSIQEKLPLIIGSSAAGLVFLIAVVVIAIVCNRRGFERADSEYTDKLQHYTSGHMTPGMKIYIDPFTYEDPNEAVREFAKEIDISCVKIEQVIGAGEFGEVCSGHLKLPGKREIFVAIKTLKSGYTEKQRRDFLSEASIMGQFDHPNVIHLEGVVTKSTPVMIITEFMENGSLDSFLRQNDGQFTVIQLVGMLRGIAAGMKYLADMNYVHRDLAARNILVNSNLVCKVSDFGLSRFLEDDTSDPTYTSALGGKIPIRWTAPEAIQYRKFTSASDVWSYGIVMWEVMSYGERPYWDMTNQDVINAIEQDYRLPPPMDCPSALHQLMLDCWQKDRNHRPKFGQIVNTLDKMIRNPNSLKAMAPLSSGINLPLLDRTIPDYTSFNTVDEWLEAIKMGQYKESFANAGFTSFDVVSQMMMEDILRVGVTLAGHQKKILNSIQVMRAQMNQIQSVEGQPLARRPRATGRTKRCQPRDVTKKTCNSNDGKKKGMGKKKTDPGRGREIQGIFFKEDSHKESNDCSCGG
As to conditions: EPHB2, [ATP] 30 µM; for remaining activity at 0.1 µM: 100 nM; for remaining activity at 0.1 µM / remaining activity at 0.5 µM: read-out: % Enzyme Activity (relative to DMSO controls).
Excerpt: as §1

Assay [3] has as its target 363 human kinases (including Aurora A/B/C) (Homo sapiens, UniProt Q5VT25). The following applies: MRCKa/CDC42BPA; for remaining activity at 0.1 µM: 100 nM; for remaining activity at 0.1 µM / remaining activity at 0.5 µM: read-out: % Enzyme Activity (relative to DMSO controls).
Excerpt: as §1
Assay [4] concerns the target T2, 363 human kinases (including Aurora A/B/C) (Homo sapiens, UniProt Q12866).
T2 sequence (Q12866 21-999): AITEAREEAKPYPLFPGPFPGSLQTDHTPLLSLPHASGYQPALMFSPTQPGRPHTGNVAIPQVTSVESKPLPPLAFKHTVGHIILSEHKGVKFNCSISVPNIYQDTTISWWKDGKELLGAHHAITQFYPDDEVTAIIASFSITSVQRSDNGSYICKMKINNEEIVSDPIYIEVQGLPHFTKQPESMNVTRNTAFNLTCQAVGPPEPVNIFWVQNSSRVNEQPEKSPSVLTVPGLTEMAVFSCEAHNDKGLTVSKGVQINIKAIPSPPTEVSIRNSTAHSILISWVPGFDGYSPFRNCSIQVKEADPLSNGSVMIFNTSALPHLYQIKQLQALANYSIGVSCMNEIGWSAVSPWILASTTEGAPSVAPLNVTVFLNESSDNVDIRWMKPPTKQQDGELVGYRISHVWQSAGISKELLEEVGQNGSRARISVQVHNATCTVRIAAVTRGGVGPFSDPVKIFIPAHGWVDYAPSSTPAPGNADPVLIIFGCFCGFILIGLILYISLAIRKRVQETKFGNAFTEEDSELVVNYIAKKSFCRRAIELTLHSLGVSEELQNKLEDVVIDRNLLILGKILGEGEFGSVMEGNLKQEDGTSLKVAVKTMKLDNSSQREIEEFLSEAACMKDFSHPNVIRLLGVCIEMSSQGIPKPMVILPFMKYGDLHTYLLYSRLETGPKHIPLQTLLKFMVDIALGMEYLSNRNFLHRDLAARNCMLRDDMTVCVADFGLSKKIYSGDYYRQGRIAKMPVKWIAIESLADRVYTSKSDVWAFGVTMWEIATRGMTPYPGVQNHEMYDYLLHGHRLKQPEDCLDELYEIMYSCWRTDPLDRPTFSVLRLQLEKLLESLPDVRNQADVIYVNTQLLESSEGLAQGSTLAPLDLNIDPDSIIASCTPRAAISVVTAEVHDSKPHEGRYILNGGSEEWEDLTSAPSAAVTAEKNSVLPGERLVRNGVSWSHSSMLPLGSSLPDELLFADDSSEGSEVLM
The following applies: c-MER, [ATP] 30 µM; for remaining activity at 0.1 µM: 100 nM; for remaining activity at 0.1 µM / remaining activity at 0.5 µM: read-out: % Enzyme Activity (relative to DMSO controls).
Excerpt: as §1

Assay [5] addresses 363 human kinases (including Aurora A/B/C) (Homo sapiens, UniProt P11309). As to conditions: PIM1; for remaining activity at 0.1 µM: 100 nM; for remaining activity at 0.1 µM / remaining activity at 0.5 µM: read-out: % Enzyme Activity (relative to DMSO controls).
Excerpt: as §1
In assay [6] the target is T3, 363 human kinases (including Aurora A/B/C) (Homo sapiens, UniProt O43318).
T3 sequence (O43318 1-606): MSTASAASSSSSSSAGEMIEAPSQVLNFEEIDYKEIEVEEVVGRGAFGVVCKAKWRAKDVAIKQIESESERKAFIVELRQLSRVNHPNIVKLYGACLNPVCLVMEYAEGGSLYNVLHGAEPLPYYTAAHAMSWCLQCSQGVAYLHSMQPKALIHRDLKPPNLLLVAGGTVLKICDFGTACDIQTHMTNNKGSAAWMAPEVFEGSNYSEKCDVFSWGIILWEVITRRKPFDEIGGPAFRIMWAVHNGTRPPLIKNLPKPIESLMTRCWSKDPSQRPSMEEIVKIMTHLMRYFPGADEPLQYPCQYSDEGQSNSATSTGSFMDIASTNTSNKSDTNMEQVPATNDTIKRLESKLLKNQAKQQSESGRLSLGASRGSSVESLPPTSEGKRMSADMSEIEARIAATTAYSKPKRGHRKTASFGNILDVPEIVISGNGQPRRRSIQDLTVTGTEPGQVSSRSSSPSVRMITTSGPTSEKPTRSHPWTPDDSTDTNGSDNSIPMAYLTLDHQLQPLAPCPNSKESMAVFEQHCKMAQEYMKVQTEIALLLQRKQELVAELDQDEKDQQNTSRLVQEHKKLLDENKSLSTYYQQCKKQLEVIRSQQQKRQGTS
As to conditions: TAK1; for remaining activity at 0.1 µM: 100 nM; for remaining activity at 0.1 µM / remaining activity at 0.5 µM: read-out: % Enzyme Activity (relative to DMSO controls).
Excerpt: as §1

Chain of 363 human kinases (including Aurora A/B/C) (Homo sapiens, UniProt Q5VT25) (Q5VT25 whole entry): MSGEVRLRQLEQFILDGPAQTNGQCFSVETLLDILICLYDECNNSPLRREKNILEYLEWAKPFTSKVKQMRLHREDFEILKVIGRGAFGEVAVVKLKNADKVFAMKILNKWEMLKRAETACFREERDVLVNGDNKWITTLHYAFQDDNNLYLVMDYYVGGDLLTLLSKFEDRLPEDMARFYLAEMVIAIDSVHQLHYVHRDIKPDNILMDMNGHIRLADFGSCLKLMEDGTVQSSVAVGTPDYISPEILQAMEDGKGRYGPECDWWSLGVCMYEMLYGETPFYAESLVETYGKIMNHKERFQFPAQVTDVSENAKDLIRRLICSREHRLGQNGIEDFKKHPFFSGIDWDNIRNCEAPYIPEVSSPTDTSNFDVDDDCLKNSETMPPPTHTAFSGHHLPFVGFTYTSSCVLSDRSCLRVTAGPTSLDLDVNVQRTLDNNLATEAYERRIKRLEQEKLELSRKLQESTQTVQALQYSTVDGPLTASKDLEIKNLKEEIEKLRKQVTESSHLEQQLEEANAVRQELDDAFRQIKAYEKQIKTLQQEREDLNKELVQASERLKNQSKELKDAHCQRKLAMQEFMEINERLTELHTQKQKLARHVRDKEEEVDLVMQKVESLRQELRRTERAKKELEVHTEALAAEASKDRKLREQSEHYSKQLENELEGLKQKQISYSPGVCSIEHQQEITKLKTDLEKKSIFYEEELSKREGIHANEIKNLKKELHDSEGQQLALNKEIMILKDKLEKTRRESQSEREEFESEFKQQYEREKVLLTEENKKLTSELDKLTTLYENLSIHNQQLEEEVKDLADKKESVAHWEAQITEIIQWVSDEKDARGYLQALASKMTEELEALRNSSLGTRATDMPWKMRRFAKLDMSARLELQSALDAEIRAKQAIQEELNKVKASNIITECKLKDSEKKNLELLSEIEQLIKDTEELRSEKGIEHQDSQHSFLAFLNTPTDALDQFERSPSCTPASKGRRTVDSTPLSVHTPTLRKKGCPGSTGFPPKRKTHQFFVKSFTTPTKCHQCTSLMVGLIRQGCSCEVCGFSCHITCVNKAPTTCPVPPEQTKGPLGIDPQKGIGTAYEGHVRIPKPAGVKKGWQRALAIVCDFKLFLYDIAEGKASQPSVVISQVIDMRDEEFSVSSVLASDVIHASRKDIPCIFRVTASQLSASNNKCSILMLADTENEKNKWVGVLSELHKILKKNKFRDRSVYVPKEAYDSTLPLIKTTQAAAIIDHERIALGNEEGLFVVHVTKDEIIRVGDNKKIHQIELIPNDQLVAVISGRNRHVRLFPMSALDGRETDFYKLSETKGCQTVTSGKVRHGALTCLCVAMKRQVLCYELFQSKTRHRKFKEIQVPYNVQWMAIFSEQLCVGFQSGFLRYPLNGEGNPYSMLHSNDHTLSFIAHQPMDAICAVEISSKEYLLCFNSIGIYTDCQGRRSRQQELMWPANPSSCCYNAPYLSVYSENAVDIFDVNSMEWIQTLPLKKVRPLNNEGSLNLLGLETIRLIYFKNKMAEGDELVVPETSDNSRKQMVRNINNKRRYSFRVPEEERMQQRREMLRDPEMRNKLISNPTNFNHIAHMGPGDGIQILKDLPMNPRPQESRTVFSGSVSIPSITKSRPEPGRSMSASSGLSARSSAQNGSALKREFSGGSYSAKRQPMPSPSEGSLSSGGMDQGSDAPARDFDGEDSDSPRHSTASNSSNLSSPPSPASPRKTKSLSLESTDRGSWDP
Chain of 363 human kinases (including Aurora A/B/C) (Homo sapiens, UniProt P10721) (P10721 26-976): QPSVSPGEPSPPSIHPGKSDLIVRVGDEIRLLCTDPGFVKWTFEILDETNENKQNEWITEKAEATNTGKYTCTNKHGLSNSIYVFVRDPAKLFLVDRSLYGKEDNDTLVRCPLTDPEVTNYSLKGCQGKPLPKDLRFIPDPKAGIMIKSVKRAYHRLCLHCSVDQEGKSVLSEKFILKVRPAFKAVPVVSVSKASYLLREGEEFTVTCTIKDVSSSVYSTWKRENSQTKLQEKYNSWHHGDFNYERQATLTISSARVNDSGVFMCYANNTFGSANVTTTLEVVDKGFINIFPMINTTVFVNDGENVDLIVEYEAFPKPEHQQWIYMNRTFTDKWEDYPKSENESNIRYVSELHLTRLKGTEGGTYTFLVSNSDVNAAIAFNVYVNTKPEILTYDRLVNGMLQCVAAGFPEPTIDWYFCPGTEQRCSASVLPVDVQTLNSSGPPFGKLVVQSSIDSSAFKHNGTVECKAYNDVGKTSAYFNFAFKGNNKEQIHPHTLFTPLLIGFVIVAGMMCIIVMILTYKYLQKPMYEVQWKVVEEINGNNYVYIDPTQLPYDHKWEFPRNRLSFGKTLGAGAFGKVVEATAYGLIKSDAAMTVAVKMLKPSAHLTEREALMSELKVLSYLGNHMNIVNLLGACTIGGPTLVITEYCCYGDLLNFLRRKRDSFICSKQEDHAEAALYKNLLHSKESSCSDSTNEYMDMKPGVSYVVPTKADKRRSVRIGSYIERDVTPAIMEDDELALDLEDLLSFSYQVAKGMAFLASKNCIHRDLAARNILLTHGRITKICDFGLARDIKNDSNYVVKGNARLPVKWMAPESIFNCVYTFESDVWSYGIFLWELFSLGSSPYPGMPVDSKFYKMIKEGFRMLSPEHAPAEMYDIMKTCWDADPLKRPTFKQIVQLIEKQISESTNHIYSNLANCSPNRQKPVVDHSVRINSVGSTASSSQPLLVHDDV
Chain of 363 human kinases (including Aurora A/B/C) (Homo sapiens, UniProt P11309) (P11309 whole entry): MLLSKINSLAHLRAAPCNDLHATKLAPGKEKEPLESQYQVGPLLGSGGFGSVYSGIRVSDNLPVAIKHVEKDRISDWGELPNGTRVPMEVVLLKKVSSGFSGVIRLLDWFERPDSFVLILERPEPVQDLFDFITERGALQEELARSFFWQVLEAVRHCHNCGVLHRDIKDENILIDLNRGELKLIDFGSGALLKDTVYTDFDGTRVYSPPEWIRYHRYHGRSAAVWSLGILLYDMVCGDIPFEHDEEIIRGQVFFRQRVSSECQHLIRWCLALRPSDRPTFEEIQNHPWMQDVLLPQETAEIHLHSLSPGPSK

Turning to `CCn1cc(-c2ccnc3[nH]c(-c4cccc(CN(C)C)c4)cc23)c(-c2ccc(NC(=O)N(C)C)cc2)n1` [GSK1070916], the remaining activity at 0.1 µM is 76.5% in assay [1]; 97.1% in assay [2]; 108% in assay [3]; 81.6% in assay [4]; 102% in assay [5]; 99% in assay [6].
Consider `O=C(O)[C@]1(Cc2cccc(Nc3nccs3)n2)CC[C@@H](Oc2cccc(Cl)c2F)CC1` [MK-5108], for which the remaining activity at 0.1 µM in assay [1] stood at 107%; in assay [2], 59.4%; in assay [3], 93.7%; in assay [4], 78.7%; in assay [5], 92%; in assay [6], 93.8%. Moreover, the remaining activity at 0.5 µM in assay [1] (500 nM) is 85.6%; in assay [2] (500 nM) it was 32%; in assay [3] (500 nM) it was 103%; in assay [4] (500 nM), 46.1%; in assay [5] (500 nM), 83.8%; in assay [6] (500 nM), 79.1%.
For `O=C(c1cccc(Cl)c1F)N1CCN(Cc2cccc(Nc3nccs3)n2)CC1` [MK-8745], the “% Enzyme Activity (relative to DMSO controls)” value in assay [1] (500 nM) stood at 86.62%; in assay [2] (500 nM) it was 80.85%; in assay [3] (500 nM), 103.58%; in assay [4] (500 nM), 41.19%; in assay [5] (500 nM), 98.06%; in assay [6] (500 nM) it was 93.95%. For the same compound, the remaining activity at 0.5 µM is 88.2% in assay [1] (500 nM); 81.8% in assay [2] (500 nM); 104% in assay [3] (500 nM); 41.6% in assay [4] (500 nM); 101% in assay [5] (500 nM); 96.6% in assay [6] (500 nM).

(Values after article PMC4685510, “A Cell Biologist’s Field Guide to Aurora Kinase Inhibitors” (Frontiers in Oncology, 2015).)
